Measurements published in ChEMBL document CHEMBL1201862, “PubChem BioAssay data set” (2004).
Activity calls are given as the source filed them.

Assays:
[1] = target: T1, Disintegrin and metalloproteinase domain-containing protein 17 (Homo sapiens, UniProt P78536); assay: exosite inhibitors of ADAM17, dose response, biochemical (AID 743260)
[2] = target: Induced myeloid leukemia cell differentiation protein Mcl-1 (Homo sapiens, UniProt Q07820); type: functional
Vero = assay: cells; type: functional; details: Chlorocebus sabaeus
[3] = target: T2, Polyadenylate-binding protein 1 (Homo sapiens, UniProt P11940); assay: MLLE binding blockers, Cy5 peptide tracer – biochemical, fluorescence polarization, Cy5-PAM2 peptide, secondary, miRNA deadenylation inhibitor project, dose response (AID 602260); type: functional; details: read-out: IC50_Mean
T2 sequence (P11940 whole entry, the tested form may be a part): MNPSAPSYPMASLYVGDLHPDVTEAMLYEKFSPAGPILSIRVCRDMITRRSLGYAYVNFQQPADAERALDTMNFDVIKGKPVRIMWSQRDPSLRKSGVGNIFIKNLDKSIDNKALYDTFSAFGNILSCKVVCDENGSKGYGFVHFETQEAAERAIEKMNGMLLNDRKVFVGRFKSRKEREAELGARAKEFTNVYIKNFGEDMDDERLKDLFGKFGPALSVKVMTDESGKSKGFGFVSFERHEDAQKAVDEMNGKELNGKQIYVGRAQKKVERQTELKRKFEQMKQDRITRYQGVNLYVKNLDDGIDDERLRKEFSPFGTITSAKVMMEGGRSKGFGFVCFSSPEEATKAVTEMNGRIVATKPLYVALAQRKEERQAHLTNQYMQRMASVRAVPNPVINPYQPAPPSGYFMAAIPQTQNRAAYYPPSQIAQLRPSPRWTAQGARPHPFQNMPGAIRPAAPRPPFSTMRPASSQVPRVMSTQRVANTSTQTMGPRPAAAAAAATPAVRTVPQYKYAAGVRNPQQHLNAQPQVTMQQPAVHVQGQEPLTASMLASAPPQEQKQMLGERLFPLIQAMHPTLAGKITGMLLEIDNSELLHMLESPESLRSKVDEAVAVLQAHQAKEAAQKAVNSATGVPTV

[4] = target: T2, Polyadenylate-binding protein 1; assay: MLLE domain peptide-binding blockers, IC50 – biochemical, fluorescence polarization, FITC-PAM2 peptide, dose response (AID 602259); type: functional; details: read-out: IC50_Mean
[5] = blockers of HIV-1 envelope-mediated cell-cell fusion – cherry-pick, dose response (AID 652057); type: functional, cell-based
[6] = viability loss in CEM21 cells – cell-based, CellTiter-Glo luminescence, cherry-picked, cytotoxicity control for viral fusion inhibitor project, dose response (AID 652042); type: functional;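 further: potency for signal decrease meaning cytotoxicity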
[7] = blockers of HIV-1 ZM109 envelope-driven cell-cell fusion – HeLa effector, CEM target cells, luciferase, cherry-pick, dose response (AID 652058); type: functional, cell-based;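 further: luciferase signal from HIV-1 Env mediated cell-cell fusion of effector and target cells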
[8] = off-target signal loss in HeLa-CEM21 co-culture – HeLa F-luc CTL cells, cherry-picked, counter-screen for HIV-1 Env fusion inhibitor project, dose response (AID 652040); type: functional, cell-based;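 further: potency for signal decrease marking cytotoxic or nonspecific inhibition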
[9] = HIV-1 AD8 envelope cell-cell fusion blockers – cherry-pick, dose response (AID 652062); type: functional, cell-based;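 further: luciferase signal from cell-cell fusion driven by HIV-1 clade B AD8 Env; potency is for inhibitors of fusion seen as a drop in luminescence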
HEK293 [10] = assay: cells; details: Homo sapiens
HEK293 [11] = assay: cells; details: Homo sapiens; remark: listed apart in the source
[12] = viability of PTEN-deleted HCT116 cells – cell-based, HCT116 PTEN knockout, dose response (AID 1047); type: functional;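 further: HCT116 colon tumor cells with PTEN knocked out; cells exposed to compound for 60 hours before readout; potency for loss of cell viability measured by luminescence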
[13] = viability of HCT116 lacking mutant beta-catenin – cell-based, human colon tumor, dose response (AID 1045); type: functional;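 further: HCT116 colon tumor cells with beta catenin knocked out; cells exposed to compound for 60 hours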
Fatty acid synthase [14] = target: T3, Fatty acid synthase (Homo sapiens, UniProt P49327); assay: inhibition of human FAS-TE enzyme activity – biochemical, endpoint fluorescence intensity, uHTS hits, dose response (AID 624327); type: functional;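 further: fluorescence from hydrolysis of an O-methyl fluorescein acyl ester substrate by the enzyme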
T3 sequence (P49327 whole entry): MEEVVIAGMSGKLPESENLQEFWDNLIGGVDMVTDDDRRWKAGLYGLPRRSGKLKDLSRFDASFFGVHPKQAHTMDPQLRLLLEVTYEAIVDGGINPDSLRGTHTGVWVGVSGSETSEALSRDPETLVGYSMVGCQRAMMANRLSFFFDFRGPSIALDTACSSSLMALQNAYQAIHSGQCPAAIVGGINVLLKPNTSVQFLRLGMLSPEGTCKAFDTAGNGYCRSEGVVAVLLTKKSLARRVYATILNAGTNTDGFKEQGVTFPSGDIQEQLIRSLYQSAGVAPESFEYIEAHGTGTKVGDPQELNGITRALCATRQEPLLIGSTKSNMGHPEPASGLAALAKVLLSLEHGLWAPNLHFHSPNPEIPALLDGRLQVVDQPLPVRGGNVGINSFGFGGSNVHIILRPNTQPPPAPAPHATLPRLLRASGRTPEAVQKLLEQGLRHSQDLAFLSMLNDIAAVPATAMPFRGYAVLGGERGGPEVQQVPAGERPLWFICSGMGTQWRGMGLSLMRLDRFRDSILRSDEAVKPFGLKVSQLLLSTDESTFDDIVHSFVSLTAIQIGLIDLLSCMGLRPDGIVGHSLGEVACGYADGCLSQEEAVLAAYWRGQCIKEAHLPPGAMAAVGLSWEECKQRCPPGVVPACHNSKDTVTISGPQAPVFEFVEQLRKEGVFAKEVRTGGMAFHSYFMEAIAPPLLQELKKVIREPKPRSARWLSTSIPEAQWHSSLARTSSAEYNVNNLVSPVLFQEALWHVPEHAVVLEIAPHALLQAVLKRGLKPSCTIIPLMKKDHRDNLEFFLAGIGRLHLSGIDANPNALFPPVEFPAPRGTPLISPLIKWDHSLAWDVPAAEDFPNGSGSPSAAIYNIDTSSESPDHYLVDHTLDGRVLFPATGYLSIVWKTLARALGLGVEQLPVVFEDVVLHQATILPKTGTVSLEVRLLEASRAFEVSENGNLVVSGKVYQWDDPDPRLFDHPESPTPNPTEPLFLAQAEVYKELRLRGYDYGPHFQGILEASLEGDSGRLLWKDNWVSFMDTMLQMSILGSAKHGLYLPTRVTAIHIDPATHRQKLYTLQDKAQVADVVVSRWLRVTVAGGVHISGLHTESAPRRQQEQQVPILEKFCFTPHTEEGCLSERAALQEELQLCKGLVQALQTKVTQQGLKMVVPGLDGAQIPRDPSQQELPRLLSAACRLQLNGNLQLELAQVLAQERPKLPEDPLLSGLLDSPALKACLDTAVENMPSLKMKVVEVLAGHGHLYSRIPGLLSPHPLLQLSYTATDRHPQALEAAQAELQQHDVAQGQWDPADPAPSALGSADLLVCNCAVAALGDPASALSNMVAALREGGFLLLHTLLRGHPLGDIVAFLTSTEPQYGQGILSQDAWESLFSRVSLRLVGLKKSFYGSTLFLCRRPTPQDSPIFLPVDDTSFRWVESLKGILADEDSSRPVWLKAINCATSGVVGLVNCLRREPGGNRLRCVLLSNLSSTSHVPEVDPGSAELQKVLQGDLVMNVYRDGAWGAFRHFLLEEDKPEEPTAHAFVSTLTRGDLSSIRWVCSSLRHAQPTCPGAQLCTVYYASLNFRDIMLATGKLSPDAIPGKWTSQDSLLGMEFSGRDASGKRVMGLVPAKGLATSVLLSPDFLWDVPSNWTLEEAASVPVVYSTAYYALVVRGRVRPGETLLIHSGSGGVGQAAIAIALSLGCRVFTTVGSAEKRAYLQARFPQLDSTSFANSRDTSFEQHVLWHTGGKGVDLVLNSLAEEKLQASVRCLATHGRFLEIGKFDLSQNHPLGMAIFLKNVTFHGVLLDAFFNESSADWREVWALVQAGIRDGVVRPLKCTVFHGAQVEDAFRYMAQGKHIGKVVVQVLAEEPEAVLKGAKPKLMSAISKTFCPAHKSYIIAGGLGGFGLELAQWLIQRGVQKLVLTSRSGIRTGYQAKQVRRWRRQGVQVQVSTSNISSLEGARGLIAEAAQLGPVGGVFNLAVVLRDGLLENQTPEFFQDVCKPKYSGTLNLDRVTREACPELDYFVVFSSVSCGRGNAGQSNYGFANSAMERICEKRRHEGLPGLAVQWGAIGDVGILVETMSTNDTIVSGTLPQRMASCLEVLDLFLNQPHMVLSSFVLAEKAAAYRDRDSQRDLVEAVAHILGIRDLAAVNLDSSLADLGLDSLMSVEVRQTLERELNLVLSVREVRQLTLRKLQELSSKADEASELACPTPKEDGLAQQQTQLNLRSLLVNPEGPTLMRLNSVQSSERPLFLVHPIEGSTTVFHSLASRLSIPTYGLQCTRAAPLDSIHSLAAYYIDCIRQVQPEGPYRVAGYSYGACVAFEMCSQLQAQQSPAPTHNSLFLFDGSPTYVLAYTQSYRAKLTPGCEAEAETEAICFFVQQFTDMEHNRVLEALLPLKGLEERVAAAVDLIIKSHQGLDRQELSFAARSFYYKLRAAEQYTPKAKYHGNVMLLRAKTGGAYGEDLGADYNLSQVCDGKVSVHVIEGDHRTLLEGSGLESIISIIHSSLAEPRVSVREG

Fatty acid synthase [15] = target: T3, Fatty acid synthase; assay: inhibition of human FAS-TE enzyme activity – biochemical, kinetic fluorescence intensity, dose response (AID 624326); type: functional;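 further: rate of fluorescence rise from hydrolysis of a fluorogenic O-methyl fluorescein ester substrate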
[16] = target: T1, Disintegrin and metalloproteinase domain-containing protein 17; assay: inhibition of ADAM17 substrate cleavage – biochemical, quenched FRET substrate, counter-screen for ADAM10 exosite inhibitor project, dose response (AID 743253)
Estrogen receptor beta = Estrogen receptor beta (Homo sapiens, UniProt Q92731);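 further: recombinant ER-beta bound to coactivator SRC1 peptide in presence of estradiol agonist; inhibitors block coactivator peptide binding and lower the FRET signal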
Sequence of Estrogen receptor beta (Q92731 whole entry): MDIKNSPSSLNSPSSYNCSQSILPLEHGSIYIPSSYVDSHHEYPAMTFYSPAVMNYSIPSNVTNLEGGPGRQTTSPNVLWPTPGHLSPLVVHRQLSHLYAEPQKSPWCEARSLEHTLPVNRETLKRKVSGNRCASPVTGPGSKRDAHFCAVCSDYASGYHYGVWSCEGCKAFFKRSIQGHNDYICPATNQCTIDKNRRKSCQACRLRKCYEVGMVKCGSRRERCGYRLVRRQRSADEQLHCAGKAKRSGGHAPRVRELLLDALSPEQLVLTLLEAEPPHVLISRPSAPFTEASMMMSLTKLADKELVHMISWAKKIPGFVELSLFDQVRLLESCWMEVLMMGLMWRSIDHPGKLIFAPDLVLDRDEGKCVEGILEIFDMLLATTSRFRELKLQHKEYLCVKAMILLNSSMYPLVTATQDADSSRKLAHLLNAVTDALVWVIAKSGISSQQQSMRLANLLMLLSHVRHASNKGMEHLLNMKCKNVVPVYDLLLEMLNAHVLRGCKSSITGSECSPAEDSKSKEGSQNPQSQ

[17] = reduced cellular PGC1a acetyl-lysine signal – cell-based, cherry-picked samples, dose response (AID 720514); type: functional;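 further: potency may reflect raised or lowered acetylation signal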
[18] = target: T4, Tyrosine-protein phosphatase non-receptor type 7 (Homo sapiens, UniProt P35236); assay: HePTP tyrosine phosphatase activity blockers – biochemical, absorbance, leukemia target, primary screen (AID 521); type: functional
T4 sequence (P35236 whole entry): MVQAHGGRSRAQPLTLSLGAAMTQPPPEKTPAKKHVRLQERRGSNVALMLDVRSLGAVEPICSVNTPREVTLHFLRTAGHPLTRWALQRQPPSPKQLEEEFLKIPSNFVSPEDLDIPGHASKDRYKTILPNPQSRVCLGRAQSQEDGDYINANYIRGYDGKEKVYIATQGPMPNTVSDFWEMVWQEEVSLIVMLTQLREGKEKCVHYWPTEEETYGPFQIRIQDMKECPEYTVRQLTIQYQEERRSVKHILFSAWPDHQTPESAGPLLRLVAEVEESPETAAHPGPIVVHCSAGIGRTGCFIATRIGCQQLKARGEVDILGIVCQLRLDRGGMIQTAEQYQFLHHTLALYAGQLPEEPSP

[19] = inhibition of ADAM10 peptide cleavage – biochemical, FRET peptide substrate, recombinant human ADAM10, selectivity assay for ADAM17 exosite inhibitor project, dose response (AID 743259);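 further: ADAM10 enzyme cleaving a FRET peptide substrate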
[20] = target: T5, RNA-editing ligase 1, mitochondrial (Trypanosoma brucei brucei, UniProt P86926); assay: inhibition of trypanosome RNA editing ligase – biochemical, fluorescence, Trypanosoma brucei, dose response (AID 1117295); type: functional
T5 sequence (P86926 whole entry): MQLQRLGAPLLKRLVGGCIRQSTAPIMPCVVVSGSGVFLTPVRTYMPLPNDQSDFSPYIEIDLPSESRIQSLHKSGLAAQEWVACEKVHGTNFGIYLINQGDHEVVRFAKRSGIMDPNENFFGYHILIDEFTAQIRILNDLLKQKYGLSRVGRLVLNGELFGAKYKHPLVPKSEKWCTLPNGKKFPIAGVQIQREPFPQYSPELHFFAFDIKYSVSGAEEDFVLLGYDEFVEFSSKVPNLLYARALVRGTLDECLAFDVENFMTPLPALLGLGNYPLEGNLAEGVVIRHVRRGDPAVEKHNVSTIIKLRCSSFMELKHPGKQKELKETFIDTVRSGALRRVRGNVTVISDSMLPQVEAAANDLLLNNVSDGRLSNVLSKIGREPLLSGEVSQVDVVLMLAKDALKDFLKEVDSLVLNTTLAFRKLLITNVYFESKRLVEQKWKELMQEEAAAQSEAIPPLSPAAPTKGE

Cytochrome P450 2D6 = Cytochrome P450 2D6 (Homo sapiens, UniProt P10635);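 further: CYP2D6 member of a cytochrome P450 panel assay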
[21] = target: NAD-dependent protein deacylase sirtuin-5, mitochondrial (Homo sapiens, UniProt Q9NXA8); assay: sirtuin-5 deacylation blockers, concentration series – biochemical, fluorescence imaging, cherry-pick, set 5, dose response (AID 720591);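 further: desuccinylation of succinyl peptide AMC substrate read as fluorescence after trypsin release; potency of inhibitors that lower fluorescence and may act on trypsin instead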
Sequence of NAD-dependent protein deacylase sirtuin-5, mitochondrial (Q9NXA8 whole entry): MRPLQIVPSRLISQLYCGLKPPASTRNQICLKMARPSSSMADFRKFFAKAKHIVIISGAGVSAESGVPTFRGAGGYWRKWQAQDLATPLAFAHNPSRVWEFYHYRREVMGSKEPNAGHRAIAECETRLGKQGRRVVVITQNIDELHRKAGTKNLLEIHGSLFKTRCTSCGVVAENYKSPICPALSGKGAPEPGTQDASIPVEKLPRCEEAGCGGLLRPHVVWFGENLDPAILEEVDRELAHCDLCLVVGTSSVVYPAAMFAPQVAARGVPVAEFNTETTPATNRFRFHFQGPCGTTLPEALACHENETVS

[22] = target: T6, Rac GTPase-activating protein 1 (Homo sapiens, UniProt Q9H0H5); assay: blockers of MgcRacGAP-driven Rac1 GTP hydrolysis – biochemical, ADP Hunter fluorescence, primary and confirmatory, confirmation (AID 624330); type: functional
T6 sequence (Q9H0H5 whole entry): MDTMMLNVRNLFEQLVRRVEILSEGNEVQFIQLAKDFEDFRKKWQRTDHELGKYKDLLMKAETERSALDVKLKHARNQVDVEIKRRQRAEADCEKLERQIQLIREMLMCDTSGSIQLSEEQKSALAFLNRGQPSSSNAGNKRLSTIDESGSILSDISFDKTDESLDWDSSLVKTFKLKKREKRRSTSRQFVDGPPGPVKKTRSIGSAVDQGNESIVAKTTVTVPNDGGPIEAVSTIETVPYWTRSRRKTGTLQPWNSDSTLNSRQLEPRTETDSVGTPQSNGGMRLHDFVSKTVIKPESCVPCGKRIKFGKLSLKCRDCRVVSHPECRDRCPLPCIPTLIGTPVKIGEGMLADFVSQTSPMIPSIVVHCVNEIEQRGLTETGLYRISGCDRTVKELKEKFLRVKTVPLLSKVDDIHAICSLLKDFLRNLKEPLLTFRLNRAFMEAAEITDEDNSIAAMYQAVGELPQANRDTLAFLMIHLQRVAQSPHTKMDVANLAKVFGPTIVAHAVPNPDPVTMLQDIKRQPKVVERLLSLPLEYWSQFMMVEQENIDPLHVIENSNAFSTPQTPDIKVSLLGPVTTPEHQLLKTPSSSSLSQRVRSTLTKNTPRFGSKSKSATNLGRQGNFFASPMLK

[23] = HIV-1 Vif–A3G interaction blockers – biochemical, TR-FRET, GST-Vif 1-94, biotin-A3G peptide, dose response retest, primary screen (AID 1117319); type: functional;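 further: TR-FRET signal of purified GST-Vif binding a biotinylated A3G peptide; inhibitors lower the FRET signal by blocking Vif and A3G binding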
[24] = target: T7, Microphthalmia-associated transcription factor (Homo sapiens, UniProt O75030); assay: reducers of TRPM1 reporter luminescence, concentration series – cell-based, SK-MEL-5, cherry-picked, set 3, MITF inhibitor project, dose response (AID 493073); type: functional;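 further: SK-MEL-5 melanoma cells with luciferase driven by the MITF target TRPM1 promoter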
T7 sequence (O75030 whole entry): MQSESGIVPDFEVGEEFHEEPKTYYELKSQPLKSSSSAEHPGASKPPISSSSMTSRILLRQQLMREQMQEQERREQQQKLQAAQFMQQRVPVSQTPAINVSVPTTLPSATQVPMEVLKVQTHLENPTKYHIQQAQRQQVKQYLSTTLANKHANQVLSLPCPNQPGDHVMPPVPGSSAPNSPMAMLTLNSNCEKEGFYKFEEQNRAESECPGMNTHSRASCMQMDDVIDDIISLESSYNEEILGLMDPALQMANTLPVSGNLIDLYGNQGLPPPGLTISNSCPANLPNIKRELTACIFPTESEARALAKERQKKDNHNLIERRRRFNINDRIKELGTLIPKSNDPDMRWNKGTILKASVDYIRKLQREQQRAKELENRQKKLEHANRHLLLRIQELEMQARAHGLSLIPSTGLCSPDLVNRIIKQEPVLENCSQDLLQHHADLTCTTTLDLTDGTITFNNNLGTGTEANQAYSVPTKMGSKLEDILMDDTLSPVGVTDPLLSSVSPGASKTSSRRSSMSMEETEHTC

INS1 = assay: INS-1E survival protection against cytokine death – cell-based, luminescence, retest, dose response (AID 449756); type: functional; details: Rattus norvegicus;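 further: cell death triggered by IL-1 beta plus TNF-alpha plus IFN-gamma mixture; protective hits raise ATP signal compared with cytokine alone wells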
[25] = viability loss in MITF-independent A375 cells – cell-based, CellTiter-Glo luminescence, dry powder, set 2, counter-screen for MITF inhibitor project, dose response (AID 624489); type: functional; details: A-375;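 further: actives are compounds lowering A375 viability meaning general cytotoxicity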

T1 sequence (P78536 whole entry, the tested form may be a part): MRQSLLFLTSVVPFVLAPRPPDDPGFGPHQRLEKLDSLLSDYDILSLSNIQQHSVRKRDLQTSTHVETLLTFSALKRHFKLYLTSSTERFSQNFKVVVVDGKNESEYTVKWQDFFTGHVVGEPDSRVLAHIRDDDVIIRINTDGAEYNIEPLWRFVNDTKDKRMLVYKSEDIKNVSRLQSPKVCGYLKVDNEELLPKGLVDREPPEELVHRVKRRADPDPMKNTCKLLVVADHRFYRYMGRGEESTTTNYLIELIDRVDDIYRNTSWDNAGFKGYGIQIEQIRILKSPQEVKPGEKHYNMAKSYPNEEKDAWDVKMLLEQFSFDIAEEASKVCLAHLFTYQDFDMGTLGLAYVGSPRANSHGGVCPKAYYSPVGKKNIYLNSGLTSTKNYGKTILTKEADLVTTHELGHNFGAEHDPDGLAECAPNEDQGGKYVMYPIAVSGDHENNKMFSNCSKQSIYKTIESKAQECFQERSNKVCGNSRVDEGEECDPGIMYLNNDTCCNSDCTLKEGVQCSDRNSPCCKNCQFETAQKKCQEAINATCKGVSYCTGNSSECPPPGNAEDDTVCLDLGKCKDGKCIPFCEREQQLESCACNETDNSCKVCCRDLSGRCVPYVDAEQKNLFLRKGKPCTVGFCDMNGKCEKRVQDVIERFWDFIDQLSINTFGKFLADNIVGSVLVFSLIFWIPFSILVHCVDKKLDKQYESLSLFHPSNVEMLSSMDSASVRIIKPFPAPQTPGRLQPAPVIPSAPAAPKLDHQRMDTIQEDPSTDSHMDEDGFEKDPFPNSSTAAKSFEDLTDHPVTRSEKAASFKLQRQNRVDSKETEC

COc1ccc(N2CCC(CNC(=S)Nc3cccc(OC)c3)C2)cc1 (centres undefined)
IC50 [1]: > 69.5 µM (inactive)

CCOC(=O)c1c(CSc2ccc(C)cc2)n(C)c2cc(Br)c(O)c(CN(C)C)c12
IC50 [2]: 2.7 µM (active)
CC50 (Vero): > 25 µM (active)
IC50 [3]: > 66 µM (inactive)
IC50 [4]: > 66 µM (inactive)
AC50 [5]: 0.342 µM (active)
AC50 [6]: 58.8 µM (active)
AC50 [7]: 0.465 µM (active)
AC50 [8]: 0.452 µM (active)
AC50 [9]: 1.32 µM (active)
EC50 (HEK293 [10]): > 59.6 µM (inactive)
EC50 (HEK293 [11]): > 59.6 µM (inactive)

Fc1c(F)c(C(F)(F)F)c(F)c(F)c1N/N=C\c1cccs1
EC50 [12]: 109 µM (active)
EC50 [13]: 43.1 µM (active)
IC50 (Fatty acid synthase [14]): 10.4 µM (active)
IC50 (Fatty acid synthase [15]): 10.2 µM (active)
IC50 [16]: > 69.5 µM (inactive)

CCc1cc2c(=O)n(CC)c(SC(C)C(=O)Nc3c(C)n(C)n(-c4ccccc4)c3=O)nc2s1 (centres undefined)
IC50 (Estrogen receptor beta): > 50 µM (not active)

C=CCn1c(-c2csc3c2CCC(C)C3)n[nH]c1=S (centres undefined)
IC50 [1]: > 69.4 µM (inactive)

Cc1ccccc1-n1nnnc1Sc1nnnn1-c1ccccc1
EC50 [12]: 4.94 µM (active)
EC50 [13]: 4.42 µM (active)
AC50 [17]: 10.4 µM (active)

CCN(CC)CCNc1ccnc2cc(Cl)ccc12
IC50 [18]: > 100 µM (not active)

O=C1CCCCC1C(Nc1ccc(Cl)cc1)c1ccccc1 (centres undefined)
IC50 [1]: > 69.5 µM (inactive)
IC50 [19]: 34.3 µM (inactive)

COC(=O)C1=C(C)N(Cc2ccccc2C(F)(F)F)C(NCc2ccccc2)=NC1c1ccc(Cl)cc1 (centres undefined)
IC50 [20]: > 96.6 µM (inactive)

C=CCn1c(S)nnc1-c1csc2c1CCC(C)C2 (centres undefined)
IC50 [19]: > 69.4 µM (inactive)

COc1ccc(N2CCC(CN=C(S)Nc3cccc(OC)c3)C2)cc1 (centres undefined)
IC50 [19]: > 69.5 µM (inactive)

Cc1ccc(C(=O)c2c[nH]nc2-c2cc(Cl)ccc2O)cc1
IC50 [18]: > 100 µM (not active)
AC50 (Cytochrome P450 2D6): 28.2 µM (inconclusive)

COc1ccc(OC)c(C2Nc3ccccc3N=C3CC(C)(C)CC(O)=C32)c1 (centres undefined)
AC50 [21]: > 30 µM (inactive)

CN(Cc1ccccc1)C(c1ccnc2ccccc12)c1nnnn1-c1ccc2c(c1)OCCO2 (centres undefined)
AC50 [21]: 14.2 µM (active)

COC(=O)C1=C(C)N(Cc2ccccc2C(F)(F)F)C(NCc2ccc3c(c2)OCO3)=NC1c1cccc(Cl)c1 (centres undefined)
IC50 [20]: > 96.6 µM (inactive)

CCOc1ccc(C2NC(=O)C(C#N)=C(S)N2c2ccc(OC)cc2)cc1OC (centres undefined)
IC50 [22]: 134 µM (active)
IC50 [23]: > 100 µM (active)

CC(C)(C)n1nnnc1C(c1ccc(C#N)cc1)N1CCCC2(CCCCC2)C1 (centres undefined)
IC50 [18]: > 100 µM (not active)

CN1CCN(C2=C(NS(=O)(=O)c3cccs3)C(=O)c3ccccc3C2=O)CC1
AC50 [24]: 6.98 µM (active)
AC50 (INS1): 5.87 µM (active)
AC50 [25]: > 70 µM (inactive)
